Active and inactive are the calls of the source. No cut-off for these calls is given here.
Assays:
Mus musculus [1] = experiment: Anticonvulsant activity was evaluated by Neurologic toxicity (the rotarod test) at dose 600 mg/kg; No activity; format: functional
Mus musculus [2] = experiment: Anticonvulsant activity was evaluated by maximal electroshock seizure (MES) test at dose 600 mg/kg; 1=Noticeable activity; format: functional
Mus musculus [3] = experiment: Anticonvulsant activity was evaluated by subcutaneous pentylenetetrazole (Metrazol) (sc Met) seizure test at dose 600 mg/kg; No activity; format: functional
Mus musculus [4] = experiment: Anticonvulsant activity was evaluated by maximal electroshock seizure (MES) test at dose 300 mg/kg; 2=Noticeable activity; format: functional
Mus musculus [5] = experiment: Anticonvulsant activity was evaluated by Neurologic toxicity (the rotarod test) at dose 300 mg/kg; 2=Noticeable activity; format: functional
Mus musculus [6] = experiment: Anticonvulsant activity was evaluated by Neurologic toxicity (the rotarod test) at dose 600 mg/kg; 1=Noticeable activity; format: functional
Mus musculus [7] = experiment: Anticonvulsant activity was evaluated by subcutaneous pentylenetetrazole (Metrazol) (sc Met) seizure test at dose 600 mg/kg; 1=Noticeable activity; format: functional
Mus musculus [8] = experiment: Anticonvulsant activity was evaluated by maximal electroshock seizure (MES) test at dose 600 mg/kg; No activity; format: functional
Mus musculus [9] = experiment: Anticonvulsant activity was evaluated by subcutaneous pentylenetetrazole (Metrazol) (sc Met) seizure test at dose 300 mg/kg; 2=Noticeable activity; format: functional
Mus musculus [10] = experiment: Anticonvulsant activity was evaluated by subcutaneous pentylenetetrazole (Metrazol) (sc Met) seizure test at dose 30 mg/kg; format: functional
Mus musculus [11] = organism: Mus musculus; experiment: Effective dose was evaluated by maximal electroshock seizure (MES) test; format: functional
Mus musculus [12] = experiment: Anticonvulsant activity was evaluated by maximal electroshock seizure (MES) test at dose 100 mg/kg; 3=Noticeable activity; format: functional
[13] = Toxic dose was evaluated by neurological toxicity (the rotarod test); format: organism-based; details: mouse, in vivo
Mus musculus [14] = experiment: Effective dose was evaluated by subcutaneous pentylenetetrazole (Metrazol) (sc Met) seizure test; format: functional
Mus musculus [15] = experiment: Anticonvulsant activity was evaluated by subcutaneous pentylenetetrazole (Metrazol) (sc Met) seizure test at dose 100 mg/kg; 3=Noticeable activity; format: functional
Mus musculus [16] = experiment: Effective dose was evaluated by subcutaneous pentylenetetrazole (Metrazol) (sc Met) seizure test; NE means not effective; format: functional, organism-based

Structure (SMILES): O=C1NCC(O)N1Cc1ccccc1 (centres undefined)
- Activity (Mus musculus [1]): 0
- Activity (Mus musculus [2]): 1
- Activity (Mus musculus [3]): 0

Structure (SMILES): CC(N)C(=O)NCc1ccccc1 (centres undefined)
- Activity (Mus musculus [4]): 2
- Activity (Mus musculus [5]): 2
- Activity (Mus musculus [3]): 0

Structure (SMILES): CC1(C)NC(=O)N(CCc2ccccc2)C1O (centres undefined)
- Activity (Mus musculus [2]): 1
- Activity (Mus musculus [6]): 1
- Activity (Mus musculus [7]): 1

Structure (SMILES): O=C1NC(c2ccccc2)C(O)N1c1ccccc1 (centres undefined)
- Activity (Mus musculus [1]): 0
- Activity (Mus musculus [8]): 0
- Activity (Mus musculus [3]): 0

Structure (SMILES): CNCC(NC)c1ccccc1 (centres undefined)
- Activity (Mus musculus [8]): 0
- Activity (Mus musculus [5]): 2
- Activity (Mus musculus [3]): 0

Structure (SMILES): Cn1cc(-c2ccccc2)nc1O
- Activity (Mus musculus [1]): 0
- Activity (Mus musculus [2]): 1
- Activity (Mus musculus [7]): 1

Structure (SMILES): Oc1nc(-c2ccccc2)cn1-c1ccccc1
- Activity (Mus musculus [9]): 2
- Activity (Mus musculus [1]): 0
- Activity (Mus musculus [8]): 0

Structure (SMILES): Cc1cn(-c2ccccc2)c(O)n1
- Activity (Mus musculus [2]): 1
- Activity (Mus musculus [6]): 1
- Activity (Mus musculus [3]): 0

Structure (SMILES): CC1NC(=O)N(Cc2ccccc2)C1=O (centres undefined)
- Activity (Mus musculus [9]): 2
- Activity (Mus musculus [10]): 4
- Activity (Mus musculus [6]): 1

Structure (SMILES): COc1cccc(CN2C(=O)NC(C)(C)C2=O)c1
- Activity (Mus musculus [1]): 0
- Activity (Mus musculus [2]): 1
- Activity (Mus musculus [3]): 0

Structure (SMILES): CC1NC(=O)N(c2ccccc2)C1=O (centres undefined)
- Activity (Mus musculus [8]): 0
- Activity (Mus musculus [6]): 1
- Activity (Mus musculus [3]): 0

Structure (SMILES): CC1C(O)N(C)C(=O)N1C (centres undefined)
- Activity (Mus musculus [1]): 0
- Activity (Mus musculus [8]): 0
- Activity (Mus musculus [3]): 0

Structure (SMILES): O=C1CNC(=O)N1Cc1ccccc1
- Activity (Mus musculus [9]): 2
- ED50 (Mus musculus [11]): 65 mg/kg
- Activity (Mus musculus [12]): 3
- TD50 [13]: 224 mg/kg
- Activity (Mus musculus [5]): 2
- ED50 (Mus musculus [14]): 114 mg/kg

Structure (SMILES): NC(=O)NC(=O)Cc1ccccc1 [PHENACEMIDE]
- ED50 (Mus musculus [11]): 87 mg/kg

Structure (SMILES): CC(=O)NC(C)C(=O)NCc1ccccc1 (centres undefined)
- Activity (Mus musculus [6]): 1
- ED50 (Mus musculus [11]): 77 mg/kg
- Activity (Mus musculus [12]): 3
- Activity (Mus musculus [3]): 0

Structure (SMILES): O=C1NCC(O)N1c1ccccc1 (centres undefined)
- Activity (Mus musculus [1]): 0
- Activity (Mus musculus [8]): 0
- Activity (Mus musculus [3]): 0

Structure (SMILES): COc1cc2c(cc1OC)C1N(CC2)C(=O)NC1(C)C (centres undefined)
- Activity (Mus musculus [8]): 0
- Activity (Mus musculus [6]): 1
- Activity (Mus musculus [3]): 0

Structure (SMILES): O=C1NC(c2ccccc2)C(O)N1Cc1ccccc1 (centres undefined)
- Activity (Mus musculus [1]): 0
- Activity (Mus musculus [8]): 0
- Activity (Mus musculus [3]): 0

Structure (SMILES): Cc1cn(Cc2ccccc2)c(O)n1
- Activity (Mus musculus [9]): 2
- Activity (Mus musculus [4]): 2
- Activity (Mus musculus [6]): 1
- ED50 (Mus musculus [11]): 90 mg/kg
- TD50 [13]: 268 mg/kg

Structure (SMILES): CN1C(=O)NC(c2ccccc2)C1=O (centres undefined)
- Activity (Mus musculus [6]): 1
- ED50 (Mus musculus [11]): 75 mg/kg
- Activity (Mus musculus [12]): 3
- TD50 [13]: 271 mg/kg
- ED50 (Mus musculus [14]): 26 mg/kg
- Activity (Mus musculus [15]): 3

Structure (SMILES): CCC1(c2ccccc2)NC(=O)N(C)C1=O (centres undefined) [MEPHENYTOIN]
- ED50 (Mus musculus [11]): 61 mg/kg
- ED50 (Mus musculus [14]): 31 mg/kg

Structure (SMILES): CC1(C)NC(=O)N2C=Cc3ccccc3C21 (centres undefined)
- Activity (Mus musculus [9]): 2
- Activity (Mus musculus [4]): 2
- Activity (Mus musculus [5]): 2

Structure (SMILES): O=C1NC(c2ccccc2)C(=O)N1c1ccccc1 (centres undefined)
- Activity (Mus musculus [1]): 0
- Activity (Mus musculus [8]): 0
- Activity (Mus musculus [3]): 0

Structure (SMILES): CC1NC(=O)N(C)C1=O (centres undefined)
- Activity (Mus musculus [1]): 0
- Activity (Mus musculus [8]): 0
- Activity (Mus musculus [3]): 0

Structure (SMILES): Oc1nc(-c2ccccc2)cn1Cc1ccccc1
- Activity (Mus musculus [1]): 0
- Activity (Mus musculus [8]): 0
- Activity (Mus musculus [3]): 0

Structure (SMILES): CN1CC(c2ccccc2)NC1=O (centres undefined)
- Activity (Mus musculus [4]): 2
- Activity (Mus musculus [5]): 2
- Activity (Mus musculus [7]): 1

Structure (SMILES): CN1C(=O)CNC1=O
- Activity (Mus musculus [1]): 0
- Activity (Mus musculus [8]): 0
- Activity (Mus musculus [3]): 0

Structure (SMILES): COc1cccc(CCCN2C(=O)NC(C)(C)C2O)c1 (centres undefined)
- Activity (Mus musculus [9]): 2
- Activity (Mus musculus [4]): 2
- Activity (Mus musculus [6]): 1

Structure (SMILES): O=C1NC(=O)C(c2ccccc2)(c2ccccc2)N1 [PHENYTOIN]
- ED50 (Mus musculus [16]): inactive
- ED50 (Mus musculus [11]): 10 mg/kg

Structure (SMILES): COc1cccc(CN2C(=O)NC(C)(C)C2O)c1 (centres undefined)
- Activity (Mus musculus [1]): 0
- Activity (Mus musculus [2]): 1
- Activity (Mus musculus [3]): 0

Structure (SMILES): CC1NC(=O)NC1=O (centres undefined)
- Activity (Mus musculus [1]): 0
- Activity (Mus musculus [8]): 0
- Activity (Mus musculus [3]): 0

Structure (SMILES): Cn1ccnc1O
- Activity (Mus musculus [1]): 0
- Activity (Mus musculus [8]): 0
- Activity (Mus musculus [3]): 0

Structure (SMILES): CNC(=O)C(NC(C)=O)c1ccccc1 (centres undefined)
- Activity (Mus musculus [1]): 0
- Activity (Mus musculus [8]): 0
- Activity (Mus musculus [3]): 0

Structure (SMILES): CC1NC(=O)N(C)C1O (centres undefined)
- Activity (Mus musculus [1]): 0
- Activity (Mus musculus [8]): 0
- Activity (Mus musculus [3]): 0

Structure (SMILES): O=C1NC(c2ccccc2)C(=O)N1Cc1ccccc1 (centres undefined)
- Activity (Mus musculus [1]): 0
- Activity (Mus musculus [8]): 0
- Activity (Mus musculus [3]): 0

Structure (SMILES): CNC(C)CNCc1ccccc1 (centres undefined)
- Activity (Mus musculus [8]): 0
- Activity (Mus musculus [5]): 2
- Activity (Mus musculus [3]): 0

Structure (SMILES): CC1(C)NC(=O)N(CCc2ccccc2)C1=O
- Activity (Mus musculus [9]): 2
- ED50 (Mus musculus [11]): 110 mg/kg
- Activity (Mus musculus [12]): 3
- TD50 [13]: 243 mg/kg
- Activity (Mus musculus [5]): 2
- ED50 (Mus musculus [14]): 130 mg/kg

Structure (SMILES): CN1C(=O)NC(c2ccccc2)C1O (centres undefined)
- Activity (Mus musculus [9]): 2
- Activity (Mus musculus [1]): 0
- Activity (Mus musculus [7]): 1

Structure (SMILES): CC1NC(=O)N(Cc2ccccc2)C1O (centres undefined)
- Activity (Mus musculus [4]): 2
- Activity (Mus musculus [6]): 1
- Activity (Mus musculus [7]): 1

Structure (SMILES): CC1C(=O)N(C)C(=O)N1C (centres undefined)
- Activity (Mus musculus [9]): 2
- Activity (Mus musculus [1]): 0
- Activity (Mus musculus [8]): 0

Structure (SMILES): COc1cccc(CCCN2C(=O)NC(C)(C)C2=O)c1
- Activity (Mus musculus [4]): 2
- Activity (Mus musculus [5]): 2
- Activity (Mus musculus [7]): 1

Structure (SMILES): O=C1CNC(=O)N1c1ccccc1
- Activity (Mus musculus [1]): 0
- Activity (Mus musculus [2]): 1
- Activity (Mus musculus [3]): 0

Structure (SMILES): CNC(=O)C(N)c1ccccc1 (centres undefined)
- Activity (Mus musculus [1]): 0
- Activity (Mus musculus [8]): 0
- Activity (Mus musculus [3]): 0

Structure (SMILES): COc1ccc2c(c1)CCCN1C(=O)NC(C)(C)C21 (centres undefined)
- Activity (Mus musculus [1]): 0
- Activity (Mus musculus [8]): 0
- Activity (Mus musculus [3]): 0

Structure (SMILES): CN1C(=O)NCC1O (centres undefined)
- Activity (Mus musculus [1]): 0
- Activity (Mus musculus [8]): 0
- Activity (Mus musculus [3]): 0

Structure (SMILES): Oc1nccn1-c1ccccc1
- Activity (Mus musculus [9]): 2
- ED50 (Mus musculus [11]): 124 mg/kg
- Activity (Mus musculus [12]): 3
- TD50 [13]: 211 mg/kg
- Activity (Mus musculus [5]): 2
- ED50 (Mus musculus [14]): 173 mg/kg

Structure (SMILES): CC1NC(=O)N(c2ccccc2)C1O (centres undefined)
- Activity (Mus musculus [2]): 1
- Activity (Mus musculus [6]): 1
- Activity (Mus musculus [7]): 1

Structure (SMILES): Cc1cn(C)c(O)n1
- Activity (Mus musculus [1]): 0
- Activity (Mus musculus [8]): 0
- Activity (Mus musculus [3]): 0

Structure (SMILES): O=C1NC(=O)C(c2ccccc2)N1 (centres undefined)
- Activity (Mus musculus [4]): 2
- Activity (Mus musculus [6]): 1
- ED50 (Mus musculus [11]): 156 mg/kg
- TD50 [13]: 399 mg/kg
- ED50 (Mus musculus [14]): 109 mg/kg
- Activity (Mus musculus [15]): 3

Structure (SMILES): Cc1cn(C)c(=O)n1C
- Activity (Mus musculus [1]): 0
- Activity (Mus musculus [8]): 0
- Activity (Mus musculus [3]): 0

Source: ChEMBL document CHEMBL1122994, “Effect of structural modification of the hydantoin ring on anticonvulsant activity” (J Med Chem, 1985)
